The target of series [1] is T1, Heat shock protein HSP 90-alpha (Homo sapiens, UniProt P07900). The series can be described thus: Displacement of GM-BODIPY from human full length HSP90 alpha expressed in baculovirus-infected Sf9 cells at 5 uM after 16 hrs by fluorescence polarization assay.
Series [2] can be described thus: Retention time of the compound. It is filed as physicochemical.
Series [3] concerns the target T1, Heat shock protein HSP 90-alpha. The series can be described thus: biochemical.
Description: Displacement of GM-BODIPY from human full length HSP90 alpha expressed in baculovirus-infected Sf9 cells after 16 hrs by fluorescence polarization assay
The nature of series [4]: Intrinsic clearance in human liver microsomes at 1 uM after 5 mins by LC-MS/MS analysis. It is filed as ADME. To be noted: read-out: CLH.
The target in series [5] is CYP2C9 (Homo sapiens, UniProt P11712). The series can be described thus: Inhibition of CYP2C9 in human liver microsomes using diclofenac as substrate at 10 uM. To be noted: probe diclofenac. It is filed as ADME.
Chain of CYP2C9 (P11712 whole entry): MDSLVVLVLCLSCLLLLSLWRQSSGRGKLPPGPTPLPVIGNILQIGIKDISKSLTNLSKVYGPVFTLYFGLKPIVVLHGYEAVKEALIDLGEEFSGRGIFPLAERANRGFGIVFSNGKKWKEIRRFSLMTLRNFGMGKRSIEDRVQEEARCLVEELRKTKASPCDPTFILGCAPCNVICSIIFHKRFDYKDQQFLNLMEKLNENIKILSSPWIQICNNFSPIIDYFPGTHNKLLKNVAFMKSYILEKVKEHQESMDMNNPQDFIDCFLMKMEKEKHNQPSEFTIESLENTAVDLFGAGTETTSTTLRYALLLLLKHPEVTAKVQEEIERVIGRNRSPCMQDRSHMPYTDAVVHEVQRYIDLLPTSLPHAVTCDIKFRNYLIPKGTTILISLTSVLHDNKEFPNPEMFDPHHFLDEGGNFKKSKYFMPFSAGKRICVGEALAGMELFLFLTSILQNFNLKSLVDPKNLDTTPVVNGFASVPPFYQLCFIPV
The target in series [6] is CYP3A4 (Homo sapiens, UniProt P08684). The series can be described thus: Inhibition of CYP3A4 in human liver microsomes using midazolam or testosterone as substrate at 10 uM. To be noted: probe midazolam or testosterone. It is filed as ADME. For orientation: Liver microsomes are a subcellular fraction often used to study metabolism.
Chain of CYP3A4 (P08684 whole entry): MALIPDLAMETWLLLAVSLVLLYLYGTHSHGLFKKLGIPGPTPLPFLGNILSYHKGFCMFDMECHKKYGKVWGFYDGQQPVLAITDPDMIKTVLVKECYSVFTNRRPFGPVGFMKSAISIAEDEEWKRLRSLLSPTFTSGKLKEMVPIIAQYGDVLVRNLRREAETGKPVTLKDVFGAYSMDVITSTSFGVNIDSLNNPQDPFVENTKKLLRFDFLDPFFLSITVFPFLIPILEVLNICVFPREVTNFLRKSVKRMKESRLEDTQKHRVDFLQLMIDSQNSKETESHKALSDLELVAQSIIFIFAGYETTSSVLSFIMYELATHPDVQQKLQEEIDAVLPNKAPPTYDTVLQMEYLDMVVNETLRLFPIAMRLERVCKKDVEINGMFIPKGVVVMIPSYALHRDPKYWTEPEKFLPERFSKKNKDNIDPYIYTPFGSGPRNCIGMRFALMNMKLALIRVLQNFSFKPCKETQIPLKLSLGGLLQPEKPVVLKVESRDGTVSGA
The target of series [7] is CYP2D6 (Homo sapiens, UniProt P10635). The series can be described thus: Inhibition of CYP2D6 in human liver microsomes using dextromethorphan as substrate at 10 uM. The following applies: probe dextromethorphan. It is filed as ADME.
Chain of CYP2D6 (P10635 whole entry): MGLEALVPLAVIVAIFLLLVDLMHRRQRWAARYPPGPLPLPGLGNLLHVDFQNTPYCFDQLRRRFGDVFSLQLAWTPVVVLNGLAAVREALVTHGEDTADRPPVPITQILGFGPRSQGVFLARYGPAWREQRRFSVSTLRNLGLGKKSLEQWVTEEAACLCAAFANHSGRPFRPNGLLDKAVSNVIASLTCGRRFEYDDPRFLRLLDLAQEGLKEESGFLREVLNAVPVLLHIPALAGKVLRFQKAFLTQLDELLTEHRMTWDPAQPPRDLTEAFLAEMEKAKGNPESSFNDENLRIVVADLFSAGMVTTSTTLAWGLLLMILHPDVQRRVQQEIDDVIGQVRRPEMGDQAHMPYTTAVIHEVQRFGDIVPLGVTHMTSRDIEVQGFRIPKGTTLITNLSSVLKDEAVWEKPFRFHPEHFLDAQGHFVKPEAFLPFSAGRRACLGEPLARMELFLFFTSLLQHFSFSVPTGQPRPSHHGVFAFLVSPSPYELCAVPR
Series [8] addresses T2, CYP1A2 (Homo sapiens, UniProt P05177).
T2 sequence (P05177 whole entry): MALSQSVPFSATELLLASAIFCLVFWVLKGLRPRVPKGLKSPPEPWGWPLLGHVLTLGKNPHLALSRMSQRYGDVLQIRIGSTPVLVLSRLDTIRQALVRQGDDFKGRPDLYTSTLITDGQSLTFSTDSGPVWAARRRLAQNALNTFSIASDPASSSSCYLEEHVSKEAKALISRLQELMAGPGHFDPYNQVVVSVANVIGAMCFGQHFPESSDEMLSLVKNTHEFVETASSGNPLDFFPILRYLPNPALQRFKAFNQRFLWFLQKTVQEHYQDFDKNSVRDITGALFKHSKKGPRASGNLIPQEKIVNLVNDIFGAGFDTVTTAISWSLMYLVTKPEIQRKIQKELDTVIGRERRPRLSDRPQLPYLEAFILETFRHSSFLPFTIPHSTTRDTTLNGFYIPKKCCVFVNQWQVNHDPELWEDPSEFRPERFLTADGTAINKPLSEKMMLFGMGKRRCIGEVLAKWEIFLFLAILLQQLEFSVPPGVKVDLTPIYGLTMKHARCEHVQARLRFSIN
The series can be described thus: Inhibition of CYP1A2 in human liver microsomes using phenacetin as substrate at 10 uM. It is filed as ADME. To be noted: probe phenacetin.

The target in series [9] is CYP2C19 (Homo sapiens, UniProt P33261). The series can be described thus: Inhibition of CYP2C19 in human liver microsomes using mephenytoin as substrate at 10 uM. To be noted: probe mephenytoin. It is filed as ADME.
Chain of CYP2C19 (P33261 whole entry): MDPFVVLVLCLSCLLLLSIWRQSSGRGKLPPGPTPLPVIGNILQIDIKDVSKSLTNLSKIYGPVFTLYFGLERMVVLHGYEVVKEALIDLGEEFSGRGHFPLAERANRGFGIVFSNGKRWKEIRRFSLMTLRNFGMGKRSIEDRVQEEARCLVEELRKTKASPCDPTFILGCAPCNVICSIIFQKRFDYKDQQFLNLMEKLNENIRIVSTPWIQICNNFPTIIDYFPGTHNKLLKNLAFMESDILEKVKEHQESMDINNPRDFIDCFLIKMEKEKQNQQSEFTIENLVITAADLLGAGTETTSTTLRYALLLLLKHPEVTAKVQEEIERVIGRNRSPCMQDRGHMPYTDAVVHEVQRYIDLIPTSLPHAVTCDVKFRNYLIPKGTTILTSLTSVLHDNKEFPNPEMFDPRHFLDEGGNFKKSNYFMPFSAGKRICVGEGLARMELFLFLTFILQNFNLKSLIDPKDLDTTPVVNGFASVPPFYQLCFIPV
Series [10] in a line: Intrinsic clearance in rat liver microsomes at 1 uM after 5 mins by LC-MS/MS analysis. It is filed as ADME. The following applies: read-out: CLH.
Series [11] in a line: Growth inhibition of human NCI-H3122 cells after 72 hrs by spectrophotometer analysis. It is filed as functional. The following applies: NCI-H3122, 72 h.
Series [12] deals with HCT-116. The series can be described thus: Growth inhibition of human HCT116 cells after 72 hrs by spectrophotometer analysis. It is filed as functional. To be noted: HCT-116, 72 h.
Series [13] in a line: Growth inhibition of human BT474 cells after 72 hrs by spectrophotometer analysis. It is filed as functional. The following applies: BT-474, 72 h.
For series [14], the system named is A549. The experiment in a line: Growth inhibition of human A549 cells after 72 hrs by spectrophotometer analysis. It is filed as functional. The following applies: A549, 72 h.
In series [15] the target is T1, Heat shock protein HSP 90-alpha. The series can be described thus: Displacement of GM-BODIPY from human full length HSP90 alpha expressed in baculovirus-infected Sf9 cells at 1 uM after 16 hrs by fluorescence polarization assay. Background: Polarisation of emitted light reports the rotation of a fluorescent probe.
Series [16] concerns the target Cytochrome P450 2C19 (Homo sapiens, UniProt P33261). The series can be described thus: Time-dependent inhibition of CYP2C19 in human liver microsomes using mephenytoin as substrate at 10 uM. To be noted: TDE = time-dependent effect. It is filed as ADME.

The text below walks through data of ChEMBL document CHEMBL3259726, “Identification of a new series of potent diphenol HSP90 inhibitors by fragment merging and structure-based optimization” (Bioorg Med Chem Lett, 2014).

Chain of Cytochrome P450 2C19 (P33261 whole entry): as above

For orientation: inhibition means the share of the control response that was lost under treatment. Higher therefore signals a response far below the control. Regarding `O=C(c1cc(-c2nnc3ccc(Br)cn23)c(O)cc1O)N1CCc2ccccc2C1`, the inhibition in series [1] worked out at 18.7%. The Retention_time in series [2] is listed as 2.76 min.

One may read the IC50 as the point on the concentration scale where inhibition reaches its midpoint. A higher IC50 goes with weaker potency in that assay. As for `O=C(c1cc(Nc2ccccc2)c(O)cc1O)N1Cc2ccccc2C1`, in series [3], it took 0.021 µM to reach half-maximal inhibition (IC50). Further, the microsomal CLint at 1 µM in series [4] turned out to be 2 µL/min/mg; in series [10], 12 µL/min/mg. The inhibition at 10 µM in series [5] worked out at 68%; in series [6], 19%; in [7], 22%; in [8] it was 72%; in [9], 52%. The compound also showed a Retention_time in [2] of 3.12 min.

`O=C(c1cc(-n2ccc3cc(Br)ccc32)c(O)cc1O)N1Cc2ccccc2C1`: the midpoint of inhibition in series [3], the IC50, lay at 0.078 µM. Moreover, the microsomal CLint at 1 µM was found to be 18 µL/min/mg in series [4] and 16 µL/min/mg in series [10]. The inhibition at 10 µM in series [5] is 78%; in [6], 13%; in series [7] it was 32%; in [8], 48%; in series [9], 71%. Also, the Retention_time in [2] came to 3.8 min.

`CNC(=O)c1cccc2c1ccn2-c1cc(C(=O)N2Cc3ccccc3C2)c(O)cc1O`: in series [3], the IC50 was determined as 0.62 µM. Moreover, the Retention_time in series [2] is given as 2.74 min.

In series [3], `O=C(c1cc(-n2ccc3ncccc32)c(O)cc1O)N1Cc2ccccc2C1` came in with an IC50 of 0.13 µM. In series [2], the Retention_time stood at 2.4 min.

`CN1CCN(C(=O)c2cc(-n3ccc4ccccc43)c(O)cc2O)CC1`: the IC50 in series [3] was 0.63 µM. The compound further returned a Retention_time in series [2] of 2.35 min.

Usually GI50 stands for the concentration that inhibits growth by half. Lower therefore signals greater sensitivity of the cells. Consider `Cc1ccc2c(ccn2-c2cc(C(=O)N3Cc4ccccc4C3)c(O)cc2O)c1`, for which the GI50 in series [11] was 7.53 µM; in series [12] it was 8.6 µM; in [13] it was 7.07 µM; in series [14], 11.1 µM. The same compound registered a concentration for half-maximal inhibition (IC50) in series [3] of 0.038 µM. The inhibition at 10 µM is 68% in series [5]; 4% in series [6]; 7% in [7]; 28% in series [8]; 63% in [9]. In [2], this compound registered a Retention_time of 3.68 min. For the same compound, in series [10], the microsomal CLint at 1 µM is 42 µL/min/mg.

Turning to `O=C(c1cc(-n2ccc3c(Br)cccc32)c(O)cc1O)N1Cc2ccccc2C1`, the GI50 came out at 9.67 µM in series [11], 12.3 µM in [12], 8.52 µM in series [13] and 21 µM in series [14]. The same compound returned an IC50 in series [3] of 0.07 µM. The inhibition at 10 µM turned out to be 54% in series [5]; 22% in series [6]; 19% in series [7]; 34% in [8]; 70% in [9]. Further, in series [2], the Retention_time was determined as 3.8 min. Besides, the microsomal CLint at 1 µM in [10] worked out at 49 µL/min/mg.

For the compound `CN1CCN(C(=O)c2cc(-c3nnc4ccc(Br)cn34)c(O)cc2O)CC1`, the inhibition in series [1] was found to be 8.8%. The compound also displayed a Retention_time in series [2] of 1.86 min.

With `COC(=O)c1cccc2c1ccn2-c1cc(C(=O)N2Cc3ccccc3C2)c(O)cc1O`, the half-maximal inhibitory concentration (IC50) in [3] came out at 0.13 µM. This compound also showed a Retention_time in series [2] of 3.32 min.

For `COc1ccc2c(c1)c(CCNC(C)=O)cn2-c1cc(C(=O)N2Cc3ccccc3C2)c(O)cc1O`, in series [15], the inhibition is 56.9%. In [2], this compound displayed a Retention_time of 3.04 min.

In [3], `COc1ccc2c(c1)c(CCN)cn2-c1cc(C(=O)N2Cc3ccccc3C2)c(O)cc1O` had an IC50 of 1.5 µM. This compound registered a Retention_time in series [2] of 2.69 min.

Compound `O=C(c1cc(-n2ccc3cnccc32)c(O)cc1O)N1Cc2ccccc2C1` showed a concentration for half-maximal inhibition (IC50) in series [3] of 0.25 µM. For the same compound, in series [2], the Retention_time is 2.45 min.

Take `O=C(c1cc(-n2ccc3ccccc32)c(O)cc1O)N1CCc2ccccc2C1`: the midpoint of inhibition in [3], the IC50, lay at 0.13 µM. In series [2], this compound displayed a Retention_time of 3.54 min.

`O=C(c1cc(-n2ccc3ccccc32)c(O)cc1O)N1Cc2ccccc2C1`: the 50% growth inhibitory concentration (GI50) worked out at 7.53 µM in [11], 10.1 µM in series [12], 7.25 µM in [13] and 14.3 µM in series [14]. Besides, the IC50 in series [3] is 0.038 µM. The microsomal CLint at 1 µM in series [4] is 13 µL/min/mg; in series [10], 25 µL/min/mg. Further, the inhibition at 10 µM in [5] was determined as 73%; in series [6], 17%; in [7], 14%; in series [8], 52%; in series [9] it was 60%. In series [2], this compound returned a Retention_time of 3.56 min.

In the case of `O=C(c1cc(Nc2ccc(Cl)cc2Cl)c(O)cc1O)N1Cc2ccccc2C1`, the 50% growth inhibitory concentration (GI50) is 10.1 µM in series [11], 10.6 µM in series [12], 6.31 µM in series [13] and 24.2 µM in series [14]. Besides, in [3], 0.19 µM corresponded to half-maximal inhibition (IC50). Further, the inhibition at 10 µM in series [5] turned out to be 73%; in series [6] it was 33%; in [7] it was 5%; in [8], 40%; in series [9] it was 23%. The Retention_time in [2] was found to be 3.87 min. The microsomal CLint at 1 µM in series [10] turned out to be 16 µL/min/mg.

In the case of `Cc1ccc(Nc2cc(C(=O)N3Cc4ccccc4C3)c(O)cc2O)cc1`, the 50% inhibitory concentration (IC50) in [3] was found to be 0.071 µM. For the same compound, the inhibition at 10 µM in series [5] is 75%; in series [6], 38%; in series [7], 7%; in [8] it was 61%; in [9], 58%. The Retention_time in series [2] worked out at 3.29 min.

Take `O=C(c1cc(-n2ccc3ccccc32)c(O)cc1O)N1CCc2sccc2C1`: it took 0.33 µM to reach half-maximal inhibition in series [3] (IC50). In series [2], this compound registered a Retention_time of 3.45 min.

In turn, `O=C(O)Cc1cn(-c2cc(C(=O)N3Cc4ccccc4C3)c(O)cc2O)c2ccccc12` showed an inhibition in series [15] of 14.1%. The same compound yielded a Retention_time in [2] of 2.97 min.

`O=C(c1cc(-n2ccc3c([N+](=O)[O-])cccc32)c(O)cc1O)N1Cc2ccccc2C1` returned an IC50 in series [3] of 0.039 µM. Moreover, the microsomal CLint at 1 µM in series [4] turned out to be 22 µL/min/mg; in [10], 6 µL/min/mg. Moreover, the inhibition at 10 µM amounted to 74% in series [5]; 8% in series [6]; 50% in series [7]; 47% in series [8]; 89% in [9]. In addition, the Retention_time in series [2] is recorded as 3.45 min. Besides, the “inhibition (INH)” value in series [16] is “tde”.
